Data as given in US11718618B2, “Substituted pyrido[2,1-a]isoquinolines as VMAT2 inhibitors” (priority 2021, dated 2023).
pKi: −log10 of the molar value.

target: human VMAT2 (Homo sapiens (Human), UniProt Q05940); assay: VMAT2 radioligand binding, 3H-dihydrotetrabenazine competition on human platelet homogenate; details: 10 nM 3H-dihydrotetrabenazine, human platelet homogenate, 25° C., 90 minutes; read-out: VMAT2 Ki
Protocol: Examples of techniques for determining the capability of a compound to inhibit VMAT2 are provided below. The procedure was adapted from that described previously (see, e.g., Near, (1986), Mol. Pharmacol. 30: 252-57; Teng, et al., J. Neurochem. 71, 258-65, 1998). Homogenates from human platelets were prepared by homogenization and then washed by centrifugation as described previously (see, e.g., Hoare et al., (2003) Peptides 24:1881-97).
The human VMAT2 Ki values for the compounds listed in Table 15A and Table 15B were determined using the following procedures. Compound dilution series in DMSO were generated from either powder stocks by hand, or from DMSO stocks using serial dilution on a Vantage (Hamilton), or direct dilution using an Echo 655 (Beckman). In a total volume of 0.145 to 0.150 mL in low-binding 96-well plates (Corning #3605), twelve concentrations of test compound were competed against 10 nM ^3H-dihydrotetrabenezine (American Radiolabeled Chemicals) on human platelet homogenate (30 μg membrane protein per well) in VMAT2 binding buffer (Dulbecco's phosphate buffered saline, 1 mM EDTA, pH 7.4). Following incubation at 25° C. for 90 minutes, bound radioligand was collected by rapid filtration onto either GF/B or GF/C glass fiber filters, pretreated with 0.100 polyethylenimine, using either a Unifilter-96 Harvester (PerkinElmer) or Microlab Star (Hamilton). Following harvesting the filter plates were washed with 0.8 mL VMAT2 binding buffer, and bound radioligand was quantified by scintillation counting using a Topcount NXT or Microplate Counter Microbeta (PerkinElmer).

Chain of human VMAT2 (Q05940 whole entry): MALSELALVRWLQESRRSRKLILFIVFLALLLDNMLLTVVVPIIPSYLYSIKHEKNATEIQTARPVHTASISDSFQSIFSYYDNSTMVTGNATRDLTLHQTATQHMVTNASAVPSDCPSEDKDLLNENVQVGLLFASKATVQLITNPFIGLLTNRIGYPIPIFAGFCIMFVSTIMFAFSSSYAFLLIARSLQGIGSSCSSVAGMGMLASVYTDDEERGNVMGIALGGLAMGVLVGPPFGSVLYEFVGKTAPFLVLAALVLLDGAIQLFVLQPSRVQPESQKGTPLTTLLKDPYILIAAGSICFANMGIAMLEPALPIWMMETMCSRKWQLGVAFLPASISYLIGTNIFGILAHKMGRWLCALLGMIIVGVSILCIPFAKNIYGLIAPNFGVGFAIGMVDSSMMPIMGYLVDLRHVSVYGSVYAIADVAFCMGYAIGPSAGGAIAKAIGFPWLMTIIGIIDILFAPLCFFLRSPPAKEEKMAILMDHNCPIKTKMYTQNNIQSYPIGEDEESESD

Point of comparison: `COc1cc2c(cc1OCC(F)F)CCN1C[C@H](CC(C)(C)C)[C@H](O)C[C@@H]21` [Compound 4-2, (2R,3S,11bS)-9-(2,2-difluoroethoxy)-3-(2,2-dimethylpropyl)-10-methoxy-1H,2H,3H,4H,6H,7H,11bH-pyrido[2,1-a]isoquinolin-2-ol], pKi 6.33. Against it:
- COC[C@H](O)COc1cc2c(cc1OC)[C@H]1C[C@@H](O)[C@H](CC(C)(C)C)CN1CC2 [Compound 4-48, (2R,3R,11bR)-3-(2,2-dimethylpropyl)-9-[(2S)-2-hydroxy-3-methoxypropoxy]-10-methoxy-1H,2H,3H,4H,6H,7H,11bH-pyrido[2,1-a]isoquinolin-2-ol] — within 0.2 log units, 6.50
- COc1cc2c(cc1OCC(C)(F)F)CCN1C[C@H](CC(C)(C)C)[C@H](O)C[C@@H]21 [Compound 4-3, (2R,3S,11bS)-9-(2,2-difluoropropoxy)-3-(2,2-dimethylpropyl)-10-methoxy-1H,2H,3H,4H,6H,7H,11bH-pyrido[2,1-a]isoquinolin-2-ol] — 0.49 log units higher, 6.82
- COc1cc2c(cc1OCC(F)(F)F)CCN1C[C@H](CC(C)(C)C)[C@@H](O)C[C@@H]21 [Compound 4-8, (2S,3S,11bS)-3-(2,2-dimethylpropyl)-10-methoxy-9-(2,2,2-trifluoroethoxy)-1H,2H,3H,4H,6H,7H,11bH-pyrido[2,1-a]isoquinolin-2-ol] — within 0.2 log units, 6.22
- COc1cc2c(cc1OCc1ncno1)CCN1C[C@@H](CC(C)(C)C)[C@H](O)C[C@H]21 [Compound 4-95, (2R,3R,11bR)-3-(2,2-dimethylpropyl)-10-methoxy-9-(1,2,4-oxadiazol-5-ylmethoxy)-1H,2H,3H,4H,6H,7H,11bH-pyrido[2,1-a]isoquinolin-2-ol] — lower, < 5.00
- COc1cc2c(cc1OCCC(F)(F)F)CCN1C[C@H](CC(C)(C)C)[C@H](O)C[C@@H]21 [Compound 4-5, (2R,3S,11bS)-3-(2,2-dimethylpropyl)-10-methoxy-9-(3,3,3-trifluoropropoxy)-1H,2H,3H,4H,6H,7H,11bH-pyrido[2,1-a]isoquinolin-2-ol] — 0.54 log units higher, 6.87
- COc1cc2c(cc1OC)[C@@H]1C[C@@H](O)[C@@H](CC(C)(C)C)CN1CC2 [Compound 5-4, (2R,3S,11bS)-3-(2,2-dimethylpropyl)-9,10-dimethoxy-1H,2H,3H,4H,6H,7H,11bH-pyrido[2,1-a]isoquinolin-2-ol] — lower, < 5.00
- COc1cc2c(cc1OCC1CCS(=O)(=O)CC1)CCN1C[C@@H](CC(C)(C)C)[C@H](O)C[C@H]21 [Compound 4-97, 4-({[(2R,3R,11bR)-3-(2,2-dimethylpropyl)-2-hydroxy-10-methoxy-1H,2H,3H,4H,6H,7H,11bH-pyrido[2,1-a]isoquinolin-9-yl]oxy}methyl)-1λ^6-thiane-1,1-dione] — lower, < 5.00
- COc1cc2c(cc1OCC1(C(F)(F)F)CCCC1)CCN1C[C@@H](CC(C)(C)C)[C@H](O)C[C@H]21 [Compound 4-80, (2R,3R,11bR)-3-(2,2-dimethylpropyl)-10-methoxy-9-{[1-(trifluoromethyl)cyclo-pentyl]methoxy}-1H,2H,3H,4H,6H,7H,11bH-pyrido[2,1-a]isoquinolin-2-ol] — 0.55 log units higher, 6.88
- COc1cc2c(cc1OCC1(S(C)(=O)=O)CC1)CCN1C[C@@H](CC(C)(C)C)[C@H](O)C[C@H]21 [Compound 4-96, (2R,3R,11bR)-3-(2,2-dimethylpropyl)-9-[(1-methanesulfonylcyclo-propyl)methoxy]-10-methoxy-1H,2H,3H,4H,6H,7H,11bH-pyrido[2,1-a]isoquinolin-2-ol] — lower, < 5.00
- COc1cc2c(cc1OCC1(OS(C)(=O)=O)CC1)CCN1C[C@@H](CC(C)(C)C)[C@H](O)C[C@H]21 [Compound 4-94, 1-({[(2R,3R,11bR)-3-(2,2-dimethylpropyl)-2-hydroxy-10-methoxy-1H,2H,3H,4H,6H,7H,11bH-pyrido[2,1-a]isoquinolin-9-yl]oxy}methyl)cyclopropyl methanesulfonate] — within 0.2 log units, 6.41
- COc1cc2c(cc1OCC(F)F)CCN1C[C@H](CC(C)(C)C)[C@@H](O)C[C@@H]21 [Compound 4-6, (2S,3S,11bS)-9-(2,2-difluoroethoxy)-3-(2,2-dimethylpropyl)-10-methoxy-1H,2H,3H,4H,6H,7H,11bH-pyrido[2,1-a]isoquinolin-2-ol] — 0.26 log units lower, 6.07
- COc1cc2c(cc1OC[C@H](O)CO)CCN1C[C@@H](CC(C)(C)C)[C@H](O)C[C@H]21 [Compound 4-83, (2R)-3-{[(2R,3R,11bR)-3-(2,2-dimethylpropyl)-2-hydroxy-10-methoxy-1H,2H,3H,4H,6H,7H,11bH-pyrido[2,1-a]isoquinolin-9-yl]oxy}propane-1,2-diol] — 0.35 log units higher, 6.68
- COc1cc2c(cc1OCC(C)(F)F)CCN1C[C@H](CC(C)(C)C)[C@@H](O)C[C@@H]21 [Compound 4-7, (2S,3S,11bS)-9-(2,2-difluoropropoxy)-3-(2,2-dimethylpropyl)-10-methoxy-1H,2H,3H,4H,6H,7H,11bH-pyrido[2,1-a]isoquinolin-2-ol] — within 0.2 log units, 6.27
- COc1cc2c(cc1OCC(=O)N(C)CC(F)(F)F)CCN1C[C@@H](CC(C)(C)C)[C@H](O)C[C@H]21 [Compound 4-84, 2-{[(2R,3R,11bR)-3-(2,2-dimethylpropyl)-2-hydroxy-10-methoxy-1H,2H,3H,4H,6H,7H,11bH-pyrido[2,1-a]isoquinolin-9-yl]oxy}-N-methyl-N-(2,2,2-trifluoroethyl)acetamide] — 0.24 log units higher, 6.57
- COc1cc2c(cc1OCC1CN(C)C1)CCN1C[C@@H](CC(C)(C)C)[C@H](O)C[C@H]21 [Compound 4-37, (2R,3R,11bR)-3-(2,2-dimethylpropyl)-10-methoxy-9-[(1-methylazetidin-3-yl)methoxy]-1H,2H,3H,4H,6H,7H,11bH-pyrido[2,1-a]isoquinolin-2-ol] — lower, < 5.00
- COc1cc2c(cc1OCCCO)CCN1C[C@@H](CC(C)(C)C)[C@H](O)C[C@H]21 [Compound 4-89, (2R,3R,11bR)-3-(2,2-dimethylpropyl)-9-(3-hydroxypropoxy)-10-methoxy-1H,2H,3H,4H,6H,7H,11bH-pyrido[2,1-a]isoquinolin-2-ol] — 0.52 log units higher, 6.85
- COc1cc2c(cc1OC)[C@@H]1C[C@H](O)[C@@H](CC(C)(C)C)CN1CC2 [Compound 5-3, (2S,3S,11bS)-3-(2,2-dimethylpropyl)-9,10-dimethoxy-1H,2H,3H,4H,6H,7H,11bH-pyrido[2,1-a]isoquinolin-2-ol] — within 0.2 log units, 6.15
- COc1cc2c(cc1OC1CCN(CC(F)(F)F)C1=O)CCN1C[C@@H](CC(C)(C)C)[C@H](O)C[C@H]21 (stereo partly drawn) [Compound 4-87, 3-{[(2R,3R,11bR)-3-(2,2-dimethylpropyl)-2-hydroxy-10-methoxy-1H,2H,3H,4H,6H,7H,11bH-pyrido[2,1-a]isoquinolin-9-yl]oxy}-1-(2,2,2-trifluoroethyl)pyrrolidin-2-one] — within 0.2 log units, 6.19
- COc1cc2c(cc1OCS(=O)(=O)N(C)C)CCN1C[C@@H](CC(C)(C)C)[C@H](O)C[C@H]21 [Compound 4-86, 1-{[(2R,3R,11bR)-3-(2,2-dimethylpropyl)-2-hydroxy-10-methoxy-1H,2H,3H,4H,6H,7H,11bH-pyrido[2,1-a]isoquinolin-9-yl]oxy}-N,N-dimethylmethanesulfonamide] — 0.21 log units higher, 6.54
